Measurements from patent US12286428B2 (BRISTOL-MYERS SQUIBB COMPANY, priority 2019, dated 2025).

Tests used:
[1] = tested on: Human whole blood, IL-6 levels after TLR2 agonist lipoteichoic acid; experiment: IRAK4 Whole Blood Assay; format: cell-based; details: compounds 60 minutes at 37° C., lipoteichoic acid 10 μg/mL for 5 hours
Protocol: IRAK4 Whole Blood Assay Human whole blood containing the anti-coagulant ACD-A was plated in 384-well plate (25 μL/well) and incubated with compounds for 60 minutes at 37° C. in a 5% CO2 incubator. The blood was stimulated with a TLR2 agonist, 10 μg/mL final concentration of lipoteichoic acid (Invivogen, San Diego, CA) in 25 μL RPMI (Gibco) for 5 hours in a 5% CO2 incubator. At the end of the incubation, plates were centrifuged at 2300 rpm for 5 minutes. Supernatants were harvested and analyzed for IL-6 levels by Flow Cytometry beads assay (BD Biosciences, San Jose, CA).

IRAK4 = target: T1, IRAK4 (Homo sapiens, UniProt Q9NWZ3); experiment: IRAK4 Inhibition Assay; format: biochemical; details: ATP 500 μM, IRAK4 0.6 nM, 60 min room temperature, Caliper LABCHIP 3000
T1 sequence (Q9NWZ3 1-460): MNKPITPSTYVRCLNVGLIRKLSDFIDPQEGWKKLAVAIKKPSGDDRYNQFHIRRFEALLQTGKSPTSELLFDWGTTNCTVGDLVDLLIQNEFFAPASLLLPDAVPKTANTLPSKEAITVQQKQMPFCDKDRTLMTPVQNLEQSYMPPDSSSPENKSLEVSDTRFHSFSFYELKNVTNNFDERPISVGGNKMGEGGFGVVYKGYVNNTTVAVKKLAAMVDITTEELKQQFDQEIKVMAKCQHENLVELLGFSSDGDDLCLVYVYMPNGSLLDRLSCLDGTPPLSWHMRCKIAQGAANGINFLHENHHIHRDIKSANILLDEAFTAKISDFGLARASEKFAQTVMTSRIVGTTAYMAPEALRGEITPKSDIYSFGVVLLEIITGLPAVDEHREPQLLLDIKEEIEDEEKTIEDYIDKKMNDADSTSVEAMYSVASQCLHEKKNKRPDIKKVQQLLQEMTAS
Protocol: The assays were performed in U-bottom 384-well plates. […] The reaction was initiated by the combination of IRAK4 with substrates and test compounds. The reaction mixture was incubated at room temperature for 60 min. and terminated by adding 45 μL of 35 mM EDTA to each sample. The reaction mixture was analyzed on the Caliper LABCHIP® 3000 (Caliper, Hopkinton, MA) by electrophoretic separation of the fluorescent substrate and phosphorylated product. […] The final concentrations of reagents in the assays are ATP, 500 μM; FL-[…] peptide 1.5 μM; IRAK4, 0.6 nM; and DMSO, 1.6%.

[2] = FL-IPTSPITTTYFFFKKK peptide […]

Row | IC50 [1] [nM] | IC50 (IRAK4; [2]) [nM] | IC50 (IRAK4; FL-[…] peptide 1.5 μM) [nM] | Compound
1 | 533 | 10.7 | – | CC[C@H]1[C@@H](COc2nccc3cc(C(N)=O)c4nc(C)cn4c23)NC(=O)C1(F)F [Example 21, 1-(((2S,3S)-3-ethyl-4,4-difluoro-5-oxopyrrolidin-2-yl)methoxy)-8-methylimidazo[1,2-a][1,7]naphthyridine-6-carboxamide]
2 | 2510 | 2.3 | – | CC[C@@H]1[C@H](F)C(=O)N[C@@H]1COC1=CC=CC2C=C(C(N)=O)n3nc(C)cc3C12 (stereo partly drawn) [Example 62, 10-(((2S,3S,4S)-3-ethyl-4-fluoro-5-oxopyrrolidin-2-yl)methoxy)-2-methyl-6a,10a-dihydropyrazolo[5,1-a]isoquinoline-5-carboxamide]
3 | 158 | 8.8 | – | CC[C@H]1[C@@H](COc2nccc3cc(C(N)=O)c4nccn4c23)NC(=O)C1(F)F [Example 20, 1-(((2S,3S)-3-ethyl-4,4-difluoro-5-oxopyrrolidin-2-yl)methoxy)imidazo[1,2-a][1,7]naphthyridine-6-carboxamide]
4 | 159 | 0.7 | – | CC[C@@H]1[C@H](F)C(=O)N[C@@H]1COc1nccc2cc(C(N)=O)n3nccc3c12 [Example 36, 1-(((2S,3S,4S)-3-ethyl-4-fluoro-5-oxopyrrolidin-2-yl)methoxy)pyrazolo[5,1-a][2,7]naphthyridine-6-carboxamide]
5 | 2250 | 16.9 | – | CC[C@H]1[C@@H](COc2nccc3cc(C(N)=O)c4ncnn4c23)NC(=O)C1(F)F [Example 48, 9-(((2S,3S)-3-ethyl-4,4-difluoro-5-oxopyrrolidin-2-yl)methoxy)-[1,2,4]triazolo[1,5-a][1,7]naphthyridine-4-carboxamide]
6 | 3460 | 3.4 | – | CC[C@@H]1CC(=O)N[C@@H]1COc1cccc2cc(C(N)=O)c3nc(C)cn3c12 [Example 11, 9-(((2S,3R)-3-ethyl-5-oxopyrrolidin-2-yl)methoxy)-2-methylimidazo[1,2-a]quinoline-4-carboxamide]
7 | 306 | 15 | – | CC[C@@H]1CC(=O)N[C@@H]1COc1cccc2cc(C(N)=O)c3nccn3c12 [Example 2, 9-(((2S,3R)-3-ethyl-5-oxopyrrolidin-2-yl)methoxy)imidazo[1,2-a]quinoline-4-carboxamide]
8 | 1390 | 1.9 | – | CC[C@H]1[C@@H](COc2cccc3cc(C(N)=O)c4nccn4c23)NC(=O)C1(F)F [Example 10, 9-(((2S,3S)-3-ethyl-4,4-difluoro-5-oxopyrrolidin-2-yl)methoxy)imidazo[1,2-a]quinoline-4-carboxamide]
9 | 20000 | 19.7 | – | CC[C@@H]1CC(=O)N[C@@H]1COc1nccc2cc(C(N)=O)c3nc(C)cn3c12 [Example 18, 1-(((2S,3R)-3-ethyl-5-oxopyrrolidin-2-yl)methoxy)-8-methylimidazo[1,2-a][1,7]naphthyridine-6-carboxamide]
10 | 2020 | 29.1 | – | CC[C@@H]1CC(=O)N[C@@H]1COc1nccc2cc(C(N)=O)c3nc(C)nn3c12 [Example 49, 9-(((2S,3R)-3-ethyl-5-oxopyrrolidin-2-yl)methoxy)-2-methyl-[1,2,4]triazolo[1,5-a][1,7]naphthyridine-4-carboxamide]
11 | 1650 | 2.6 | – | CC[C@@H]1CC(=O)N[C@@H]1COc1cccc2cc(C(N)=O)n3nccc3c12 [Example 35, 10-(((2S,3R)-3-ethyl-5-oxopyrrolidin-2-yl)methoxy)pyrazolo[5,1-a]isoquinoline-5-carboxamide]
12 | 1080 | – | 9.7 | CC[C@@H]1CC(=O)N[C@@H]1COc1nccc2cc(C(N)=O)c3ncnn3c12 [Example 46, 9-(((2S,3R)-3-ethyl-5-oxopyrrolidin-2-yl)methoxy)-[1,2,4]triazolo[1,5-a][1,7]naphthyridine-4-carboxamide]
13 | 1420 | 20.6 | – | NC(=O)c1cc2cccc(OC[C@@H]3CCC(=O)N3)c2n2ccnc12 [Example 1, (S)-9-((5-oxopyrrolidin-2-yl)methoxy)imidazo[1,2-a]quinoline-4-carboxamide]
14 | 1100 | 13.6 | – | CC[C@@H]1CC(=O)N[C@@H]1COc1nccc2cc(C(N)=O)c3c(c12)CCO3 [Example 54, 1-(((2S,3R)-3-ethyl-5-oxopyrrolidin-2-yl)methoxy)-8,9-dihydrofuro[2,3-h]isoquinoline-6-carboxamide]
15 | 2130 | 2.8 | – | CC[C@@H]1[C@H](F)C(=O)N[C@@H]1COc1nccc2cc(C(N)=O)c3ncccc3c12 [Example 56, 1-(((2S,3S,4S)-3-ethyl-4-fluoro-5-oxopyrrolidin-2-yl)methoxy)-2,7-phenanthroline-6-carboxamide]
16 | 4780 | 2.1 | – | CC[C@@H]1OC(=O)N[C@@H]1COc1nccc2cc(C(N)=O)c3nccn3c12 [Example 22, 1-(((4R,5S)-5-ethyl-2-oxooxazolidin-4-yl)methoxy)imidazo[1,2-a][1,7]naphthyridine-6-carboxamide]
17 | 4230 | 15.4 | – | CC[C@@H]1[C@H](F)C(=O)N[C@@H]1COC1=CC(F)=CC2C=C(C(N)=O)c3nccn3C12 (stereo partly drawn) [Example 58, 9-(((2S,3S,4S)-3-ethyl-4-fluoro-5-oxopyrrolidin-2-yl)methoxy)-7-fluoro-5a,9a-dihydroimidazo[1,2-a]quinoline-4-carboxamide]
18 | 1030 | 9.6 | – | CC[C@@H]1CC(=O)N[C@@H]1COc1cccc2cc(C(N)=O)c3nnnn3c12 [Example 44, 9-(((2S,3R)-3-ethyl-5-oxopyrrolidin-2-yl)methoxy)tetrazolo[1,5-a]quinoline-4-carboxamide]
19 | 94 | 4.7 | – | CC[C@@H]1[C@H](F)C(=O)N[C@@H]1COc1nccc2cc(C(N)=O)c3nccn3c12 [Example 17, 1-(((2S,3S,4S)-3-ethyl-4-fluoro-5-oxopyrrolidin-2-yl)methoxy)imidazo[1,2-a][1,7]naphthyridine-6-carboxamide]
20 | 2650 | 8.2 | – | CC[C@@H]1[C@H](F)C(=O)N[C@@H]1COc1ccc(F)c2cc(C(N)=O)c3nccn3c12 [Example 15, 9-(((2S,3S,4S)-3-ethyl-4-fluoro-5-oxopyrrolidin-2-yl)methoxy)-6-fluoroimidazo[1,2-a]quinoline-4-carboxamide]
21 | 78 | 15.9 | – | CC[C@H]1[C@@H](COc2cccc3cc(C(N)=O)c4ncnn4c23)NC(=O)C1(F)F [Example 39, 9-(((2S,3S)-3-ethyl-4,4-difluoro-5-oxopyrrolidin-2-yl)methoxy)-[1,2,4]triazolo[1,5-a]quinoline-4-carboxamide]
22 | 593 | 2.6 | – | CC[C@H]1[C@@H](COc2cccc3cc(C(N)=O)c4nccn4c23)NC(=O)[C@@H]1F [Example 4, 9-(((2S,3S,4R)-3-ethyl-4-fluoro-5-oxopyrrolidin-2-yl)methoxy)imidazo[1,2-a]quinoline-4-carboxamide]
23 | 10000 | 2.2 | – | CC[C@@H]1[C@H](F)C(=O)N[C@@H]1COc1cccc2cc(C(N)=O)c3nc(C)cn3c12 [Example 12, 9-(((2S,3S,4S)-3-ethyl-4-fluoro-5-oxopyrrolidin-2-yl)methoxy)-2-methylimidazo[1,2-a]quinoline-4-carboxamide]
24 | 279 | 0.9 | – | CC[C@@H]1[C@H](F)C(=O)N[C@@H]1COc1cccc2cc(C(N)=O)n3nccc3c12 [Example 34, 10-(((2S,3S,4S)-3-ethyl-4-fluoro-5-oxopyrrolidin-2-yl)methoxy)pyrazolo[5,1-a]isoquinoline-5-carboxamide]
25 | 485 | 3.2 | – | CC[C@@H]1[C@H](F)C(=O)N[C@@H]1COc1nccc2cc(C(N)=O)c3nc(C)cn3c12 [Example 19, 1-(((2S,3S,4S)-3-ethyl-4-fluoro-5-oxopyrrolidin-2-yl)methoxy)-8-methylimidazo[1,2-a][1,7]naphthyridine-6-carboxamide]
26 | 280 | 1.3 | – | CC[C@@H]1[C@H](F)C(=O)N[C@@H]1COc1cccc2cc(C(N)=O)c3nccn3c12 [Example 5, 9-(((2S,3S,4S)-3-ethyl-4-fluoro-5-oxopyrrolidin-2-yl)methoxy)imidazo[1,2-a]quinoline-4-carboxamide]
